Molecular target: hCereblon(M1-L442)_hDDB1(M1-H1140) (Homo sapiens (Human), UniProt Q96SW2)
Assay: Fluorescence direct binding protocol (tryptophan fluorescence titration)
Details: fluorescence titration at 20° C., excited at 280 nm, recorded at 340 nm; protein 5.0 E−8 M; assay buffer 50 mM Hepes 7.4 200 mM NaCl; read-out: Fluorescence h-Cereblon_DDB1 Mean Kd_EQ
Procedure: Fluorescence Direct Binding Protocol
Determination of the affinities of compounds to protein containing one or more tryptophan is measurable by monitoring the fluorescence emission in direct mode. The measurements depending on the protein available amounts are performed either manually in a cuvette on ISS-PC1 photon counting spectrofluorometer or automatically in well plates on a fluorescence plate reader device. Fluorescence titrations are performed at 20° C. in the chosen binding assay buffer by using a defined constant protein concentration against ligand concentration variations. Small aliquots of known ligand concentration solubilized in DMSO were added and the fluorescence, excited at 280 nm, was recorded at 340 nm. The fluorescence intensity was corrected for protein dilution and for the filter effect (Birdsall et al.^69). The corrected fluorescence intensity was plotted against the ligand concentration and fitted using a four-parameter sigmoidal function, from which the equilibrium dissociation constant Kd was computed using the law of mass action assuming a 1:1 protein-ligand complex (Eftink, 1997^70).
Process • 1) Optimization of measurement parameters to minimize protein consumption and to minimize the dilution effect and the DMSO content • 2) Titration measurements of the protein against ligand by at least 12 titration steps to obtain a good s-curve fit • 3) Repeat the same titration measurements with the ligand alone to enable correction • 4) Check the stability of the protein once by titration against DMSO alone • 5) Determination of the molar extinction coefficients of the ligand at 280 and 340 nm with help of an UV-spectrophotometer • 6) Use Excel template for the correction of the measured raw data • 7) Use GraphPad Prism software for the quadratic binding fit and the KD evaluation.

hCereblon(M1-L442)_hDDB1(M1-H1140), sequence (Q96SW2 whole entry): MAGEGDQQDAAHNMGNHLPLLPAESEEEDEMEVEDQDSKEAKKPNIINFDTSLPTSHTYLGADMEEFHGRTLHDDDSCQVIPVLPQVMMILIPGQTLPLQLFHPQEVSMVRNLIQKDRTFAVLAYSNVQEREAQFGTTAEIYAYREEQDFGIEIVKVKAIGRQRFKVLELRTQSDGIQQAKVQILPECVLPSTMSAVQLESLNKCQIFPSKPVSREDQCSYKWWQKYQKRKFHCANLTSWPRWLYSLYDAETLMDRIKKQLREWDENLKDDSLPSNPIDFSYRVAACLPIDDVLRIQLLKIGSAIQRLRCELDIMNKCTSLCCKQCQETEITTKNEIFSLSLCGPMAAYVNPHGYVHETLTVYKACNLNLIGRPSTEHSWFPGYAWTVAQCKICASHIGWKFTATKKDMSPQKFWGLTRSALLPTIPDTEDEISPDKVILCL
hCereblon(M1-L442)_hDDB1(M1-H1140), sequence (Q16531 whole entry partner): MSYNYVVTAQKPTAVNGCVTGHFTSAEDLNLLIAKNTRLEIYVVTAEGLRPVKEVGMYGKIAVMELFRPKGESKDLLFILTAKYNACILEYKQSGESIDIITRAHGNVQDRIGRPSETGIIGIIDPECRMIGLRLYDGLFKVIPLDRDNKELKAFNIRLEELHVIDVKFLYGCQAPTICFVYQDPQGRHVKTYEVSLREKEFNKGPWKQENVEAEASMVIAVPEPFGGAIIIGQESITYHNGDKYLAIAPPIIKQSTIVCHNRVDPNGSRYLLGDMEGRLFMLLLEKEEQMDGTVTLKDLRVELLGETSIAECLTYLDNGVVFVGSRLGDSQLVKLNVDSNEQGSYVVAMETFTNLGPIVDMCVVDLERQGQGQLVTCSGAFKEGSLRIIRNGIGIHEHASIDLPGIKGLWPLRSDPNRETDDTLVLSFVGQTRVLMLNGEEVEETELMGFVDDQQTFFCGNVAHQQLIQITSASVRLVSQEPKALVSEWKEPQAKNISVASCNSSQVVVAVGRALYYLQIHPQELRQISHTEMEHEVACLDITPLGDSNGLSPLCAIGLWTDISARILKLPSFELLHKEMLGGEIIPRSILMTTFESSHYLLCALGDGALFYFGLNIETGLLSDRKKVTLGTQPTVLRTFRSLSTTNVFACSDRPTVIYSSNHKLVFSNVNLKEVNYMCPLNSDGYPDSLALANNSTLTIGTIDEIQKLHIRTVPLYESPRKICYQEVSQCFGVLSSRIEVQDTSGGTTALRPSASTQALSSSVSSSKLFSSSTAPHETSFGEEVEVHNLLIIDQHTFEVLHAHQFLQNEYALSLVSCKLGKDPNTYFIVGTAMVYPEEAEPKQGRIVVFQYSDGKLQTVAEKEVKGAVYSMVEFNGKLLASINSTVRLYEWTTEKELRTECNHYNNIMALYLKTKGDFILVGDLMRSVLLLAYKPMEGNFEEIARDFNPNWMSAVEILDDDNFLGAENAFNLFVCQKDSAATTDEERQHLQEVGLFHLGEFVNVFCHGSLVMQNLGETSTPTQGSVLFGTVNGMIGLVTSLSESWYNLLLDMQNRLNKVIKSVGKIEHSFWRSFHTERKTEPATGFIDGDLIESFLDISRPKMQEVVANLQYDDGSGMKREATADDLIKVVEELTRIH

Kd [µM] | SMILES
0.02 | CC(C)(C)OC(=O)N1CCC(S(=O)(=O)Nc2ccc3[nH]c(=O)[nH]c3c2)CC1 [Example 125, tert-Butyl 4-(N-(2-oxo-2,3-dihydro-1H-benzo[d]imidazol-5-yl)sulfamoyl)piperidine-1-carboxylate]
0.001 | CNS(=O)(=O)c1ccc(CC(=O)Nc2ccc3[nH]c(=O)[nH]c3c2)cc1 [Example 106, 2-(4-(N-Methylsulfamoyl)phenyl)-N-(2-oxo-2,3-dihydro-1H-benzo[d]imidazol-5-yl)acetamide]
0.007 | O=C(Nc1ccc2[nH]c(=O)[nH]c2c1)N1CCN(Cc2ccc(Cl)cc2)CC1 [Example 135, 4-(4-Chlorobenzyl)-N-(2-oxo-2,3-dihydro-1H-benzo[d]imidazol-5-yl)piperazine-1-carboxamide]
0.051 | CCc1nc2cc(C(=O)NCCOCCOCCNC(=O)C[C@@H]3N=C(c4ccc(Cl)cc4)c4c(sc(C)c4C)-n4c(C)nnc43)ccc2n1-c1ccc2[nH]c(=O)[nH]c2c1 [Example B, (S)—N-(2-(2-(2-(2-(4-(4-Chlorophenyl)-2,3,9-trimethyl-6H-thieno[3,2-f][1,2,4]triazolo[4,3-a][1,4]diazepin-6-yl)acetamido)ethoxy)ethoxy)ethyl)-2-ethyl-2′-oxo-2′,3′-dihydro-1′H-[1,5′-bibenzo[d]imidazole]-5-carboxamide]
0.017 | O=C(Nc1ccccc1)Nc1ccc2[nH]c(=O)[nH]c2c1 [Example 88, 1-(2-Oxo-2,3-dihydro-1H-benzo[d]imidazol-5-yl)-3-phenylurea]
0.007 | Cc1sc2c(c1C)C(c1ccc(Cl)cc1)=N[C@@H](CC(=O)NCCCCCNC(=O)c1cccc3c1CCN3C(=O)Nc1ccc3[nH]c(=O)[nH]c3c1)c1nnc(C)n1-2 [Example D, N4-[5-[[2-[(9S)-7-(4-Chlorophenyl)-4,5,13-trimethyl-3-thia-1,8,11,12-tetrazatricyclo[8.3.0.02,6]trideca-2(6),4,7,10,12-pentaen-9-yl]acetyl]amino]pentyl]-N1-(2-oxo-1,3-dihydrobenzimidazol-5-yl)indoline-1,4-dicarboxamide]
0.121 | CNC(=O)c1ccc(C(=O)Nc2ccc3[nH]c(=O)[nH]c3c2)cn1 [Example 133, N2-Methyl-N5-(2-oxo-2,3-dihydro-1H-benzo[d]imidazol-5-yl)pyridine-2,5-dicarboxamide]
0.046 | NS(=O)(=O)c1ccc(CC(=O)Nc2ccc3[nH]c(=O)[nH]c3c2)cc1 [Example 99, N-(2-Oxo-2,3-dihydro-1H-benzo[d]imidazol-5-yl)-2-(4-sulfamoylphenyl)acetamide]
0.057 | COC(=O)c1ccc2c(c1)CN(c1ccc3[nH]c(=O)[nH]c3c1)C2=O [Example 112, Methyl 1-oxo-2-(2-oxo-1,3-dihydrobenzimidazol-5-yl)isoindoline-5-carboxylate]
0.009 | O=C(c1ccc2[nH]c(=O)[nH]c2c1)N1CCCc2ccccc21 [Example 97, 5-(1,2,3,4-Tetrahydroquinoline-1-carbonyl)-1,3-dihydro-2H-benzo[d]imidazol-2-one]
0.017 | O=c1[nH]c2ccc(OCc3ccccc3)cc2[nH]1 [Example 154, 5-(Benzyloxy)-1,3-dihydro-2H-benzo[d]imidazol-2-one]
0.13 | CNC(=O)c1nc2ccccc2n1-c1ccc2[nH]c(=O)[nH]c2c1 [Example 102, N-Methyl-1-(2-oxo-1,3-dihydrobenzimidazol-5-yl)benzimidazole-2-carboxamide]
0.019 | Cc1sc2c(c1C)C(c1ccc(Cl)cc1)=N[C@@H](CC(=O)NCCOCCOCCNC(=O)c1ccc3c(c1)nc(-c1ccnc4ccccc14)n3-c1ccc3[nH]c(=O)[nH]c3c1)c1nnc(C)n1-2 [Example C, (S)—N-(2-(2-(2-(2-(4-(4-Chlorophenyl)-2,3,9-trimethyl-6H-thieno[3,2-f][1,2,4]triazolo[4,3-a][1,4]diazepin-6-yl)acetamido)ethoxy)ethoxy)ethyl)-2′-oxo-2-(quinolin-4-yl)-2′,3′-dihydro-1′H-[1,5′-bibenzo[d]imidazole]-5-carboxamide]
0.018 | CC(=O)Nc1ccc(NCc2ccc3[nH]c(=O)[nH]c3c2)cc1 [Example 146, N-(4-(((2-Oxo-2,3-dihydro-1H-benzo[d]imidazol-5-yl)methyl)amino)phenyl)acetamide]
0.026 | O=C(Nc1cccc(F)c1)Nc1ccc2[nH]c(=O)[nH]c2c1 [Example 127, 1-(3-Fluorophenyl)-3-(2-oxo-2,3-dihydro-1H-benzo[d]imidazol-5-yl)urea]

Continued, compound first:

SMILES | Kd [µM]
O=C(Nc1ccc2[nH]c(=O)[nH]c2c1)c1coc2ccccc12 [Example 68, N-(2-Oxo-2,3-dihydro-1H-benzo[d]imidazol-5-yl)benzofuran-3-carboxamide] | 0.009
O=C(Nc1ccc(Nc2ccccc2)cc1)Nc1ccc2[nH]c(=O)[nH]c2c1 [Example 87, 1-(2-Oxo-2,3-dihydro-1H-benzo[d]imidazol-5-yl)-3-(4-(phenylamino)phenyl)urea] | 0.027
O=c1[nH]c2ccc(-c3cccnc3)cc2[nH]1 [Example 19, 5-(Pyridin-3-yl)-1H-benzo[d]imidazol-2(3H)-one] | 0.007
CCc1nc2cc(C(=O)NC)ccc2n1-c1ccc2[nH]c(=O)[nH]c2c1 [Example 4, 2-Ethyl-N-methyl-2′-oxo-2′,3′-dihydro-1′H-[1,5′-bibenzo[d]imidazole]-5-carboxamide] | 0.036
CC(=O)NC1CCN(C(=O)c2ccc3[nH]c(=O)[nH]c3c2)CC1 [Example 29, N-(1-(2-Oxo-2,3-dihydro-1H-benzo[d]imidazole-5-carbonyl)piperidin-4-yl)acetamide] | 0.02
CCCc1nc2cc(C(=O)NC)ccc2n1-c1ccc2[nH]c(=O)[nH]c2c1 [Example 14, N-Methyl-2′-oxo-2-propyl-2′,3′-dihydro-1′H-[1,5′-bibenzo[d]imidazole]-5-carboxamide] | 0.321
Cn1cncc1-c1cc(-c2nc3ccccc3n2-c2ccc3c(c2)n(C)c(=O)n3C)c2ccccc2n1 [Example 31, 1′,3′-Dimethyl-2-(2-(1-methyl-1H-imidazol-5-yl)quinolin-4-yl)-1′,3′-dihydro-2′H-[1,5′-bibenzo[d]imidazol]-2′-one] | 0.007
CC(=O)Nc1ccc(C(=O)Nc2ccc3[nH]c(=O)[nH]c3c2)cc1 [Example 74, 4-Acetamido-N-(2-oxo-2,3-dihydro-1H-benzo[d]imidazol-5-yl)benzamide] | 0.002
O=c1[nH]c2ccc(N3C[C@H]4CC[C@@H](C3)N4)cc2[nH]1 [Example 59, 5-[rac-(1S,5R)-3,8-diazabicyclo[3.2.1]octan-3-yl]-1,3-dihydrobenzimidazol-2-one] | 0.006
O=c1[nH]c2ccc(-n3c(CO)nc4ccccc43)cc2[nH]1 [Example 61, 5-[2-(Hydroxymethyl)benzimidazol-1-yl]-1,3-dihydrobenzimidazol-2-one] | 0.029
O=c1[nH]c2ccc(-n3cnc4ccccc43)cc2[nH]1 [Example 83, 5-(Benzimidazol-1-yl)-1,3-dihydrobenzimidazol-2-one] | 0.003
CN(C(=O)c1cnc2[nH]c(=O)[nH]c2c1)c1ccccc1 [Example 76, N-Methyl-2-oxo-N-phenyl-2,3-dihydro-1H-imidazo[4,5-b]pyridine-6-carboxamide] | 0.041
O=C(NC1CCNCC1)c1ccc2[nH]c(=O)[nH]c2c1 [Example 51, 2-Oxo-N-(4-piperidyl)-1,3-dihydrobenzimidazole-5-carboxamide] | 0.138
CC(=O)Nc1cccc(C(=O)Nc2ccc3[nH]c(=O)[nH]c3c2)c1 [Example 75, 3-Acetamido-N-(2-oxo-2,3-dihydro-1H-benzo[d]imidazol-5-yl)benzamide] | 0.007
Cn1c(=O)n(C)c2cc(NC(=O)c3ccco3)ccc21 [Example 25, N-(1,3-Dimethyl-2-oxo-benzimidazol-5-yl)furan-2-carboxamide] | 0.111
O=C(c1ccc2[nH]c(=O)[nH]c2c1)N1CCc2ccccc21 [Example 24, 5-(Indoline-1-carbonyl)-1H-benzo[d]imidazol-2(3H)-one] | 0.001
CNC(=O)c1ccc2c(c1)nc(-c1cnc[nH]1)n2-c1ccc2[nH]c(=O)[nH]c2c1 [Example 15, 2-(1H-Imidazol-4-yl)-N-methyl-2′-oxo-2′,3′-dihydro-1′H-[1,5′-bibenzo[d]imidazole]-5-carboxamide] | 0.049
CNC(=O)c1ccc2c(c1)nc(-c1cc(-c3cncn3C)nc3ccccc13)n2-c1ccc2c(c1)n(C)c(=O)n2C [Example 17, N,1′,3′-Trimethyl-2-(2-(1-methyl-1H-imidazol-5-yl)quinolin-4-yl)-2′-oxo-2′,3′-dihydro-1′H-[1,5′-bibenzo[d]imidazole]-5-carboxamide] | 0.042
CC(=O)N1[C@@H]2CC[C@H]1CN(c1ccc3[nH]c(=O)[nH]c3c1)C2 [Example 63, 5-[rac-(1S,5R)-8-Acetyl-3,8-diazabicyclo[3.2.1]octan-3-yl]-1,3-dihydrobenzimidazol-2-one] | 0.079
CC(=O)N1CCC(N(C)C(=O)c2ccc3[nH]c(=O)[nH]c3c2)CC1 [Example 86, N-(1-Acetylpiperidin-4-yl)-N-methyl-2-oxo-2,3-dihydro-1H-benzo[d]imidazole-5-carboxamide] | 0.004

Reference: patent US11787802B2, “Dihydrobenzimidazolones for medical treatment” (C4 Therapeutics, Inc., priority 2017, dated 2023)
